Laboratory results as given in patent publication US20210316003A1 (Immunomedics, Inc., priority 2020, published 2021).
Several values for one entry are separate records, joined by “and”; a condition that tells them apart may be missing. Equal entries are not always repeated. Entries after “also recorded” stand apart in the source; their conditions may differ.

Key:
[1] = tested on: patients with metastatic urothelial cancer (mUC); experiment: Phase I/II trial IMMU-132-01 (NCT01631552), mUC cohort: efficacy by RECIST 1.1; type: in vivo, human; conditions: for ORR (objective response rate): 10 mg/kg days 1 and 8 of 21-day cycles
Experimental: Endpoints included safety, investigator-evaluated objective response rate (ORR per RECIST 1.1), clinical benefit rate, duration of response (DOR), progression-free survival (PFS), and overall survival (OS). Sequencing analysis of differentially mutated and expressed genes and pathways was performed in subsets of tumors from responders and non-responders.
All patients had metastatic disease measurable by Response Evaluation Criteria in Solid Tumors, version 1.1 (RECIST 1.1) at the time of enrollment. Patients were required to have an Eastern Cooperative Oncology Group (ECOG) performance status of 0 to 1 with expected survival ≥6 months and adequate hepatic, renal, and hematologic function. […] Patients with stable brain metastases could be included only if they were ≥2 weeks beyond high-dose steroid treatment. Pre-selection of patients based on tumor Trop-2 expression was not required.
Hematopoietic growth factors or blood transfusions were allowed at the investigator's discretion, but not prior to the first dose. Other supportive care (antiemetics, anti-diarrheal medications, or bone-stabilizing agents) were allowed as medically needed.
Staging CT/magnetic resonance imaging (MRI) scans were obtained at baseline and at 8-week intervals from the start of treatment until progression requiring treatment discontinuation. […] Subsequent scans were done at 8-week intervals after the confirmatory scan. Patients with evidence of clinical benefit were permitted to receive treatment following disease progression. Response was assessed by investigators using RECIST, version 1.1. Efficacy endpoints included objective response rate (ORR), time to response, duration of response (DOR), clinical benefit rate (CBR; defined as CR, PR, or stable disease ≥6 months), progression-free survival (PFS), and overall survival (OS).
The data cut-off date for this analysis was Sep. 1, 2018. ORR and CBR were calculated with 95% confidence intervals estimated by the Clopper-Pearson method (Clopper & Pearson, 1934, Biometrika 26:404-13). PFS, OS, and time-to-event endpoints were analyzed by the Kaplan-Meier method, with medians and corresponding 95% confidence intervals determined by the Brookmeyer and Crowley method with log-log transformation. Descriptive statistics were used to characterize AEs. Fischer's exact test was applied to a matrix of pathway-associated gene counts of mutated and wild type phenotypes between responders and non-responders to identify pathways enriched in either of the two response groups. P-values for single sample GSEA (ssGSEA) enrichment score differences between the responder and non-responder patient groups were obtained from the Mann-Whitney statistical test.

[2] = tested on: patients with metastatic TNBC; experiment: Phase I/II trial (NCT01631552), metastatic TNBC: efficacy by RECIST 1.1; type: in vivo, human
Excerpt: (§1) Patients with relapsed/refractory TNBC who had previously failed at at least one prior line of therapy were enrolled in a single-arm, multicenter trial (Bardia et al., 2019, N Engl J Med 380:741-51). The present study reports on 108 patients who had failed at least two prior lines of therapy (median three prior therapies) (Bardia et al., 2019, N Engl J Med 380:741-51). […] For severe treatment-related adverse events, a 25% dose reduction was allowed after the first occurrence, 50% after the second and discontinuation after the third. Of the 108 patients, 107 were female and 1 was male, with a median age of 55. Prior therapies included treatment with taxanes (98%), anthracyclines (86%), platinum agents (69%), gemcitabine (55%), eribulin (45%) and checkpoint inhibitors (17%). Tumor staging was performed by computed tomography (CT) and MRI at baseline, followed up at 8 week intervals from the start of treatment until disease progression.

[3] = tested on: patients with metastatic TNBC; experiment: Phase I/II trial (NCT01631552), metastatic TNBC: adverse events; type: in vivo, human; conditions: N = 108
Excerpt: as §1

patients with mSCLC = experiment: Antibody responses to sacituzumab govitecan, the IgG antibody and SN-38 in serum (ELISA), mSCLC; type: in vivo, human; conditions: treatment up to 22 months, up to 63 doses
Experimental: Positivity required at least 10% of the tumor cells to be stained, with an intensity scored as 1+(weak), 2+(moderate), and 3+(strong). […] Assay sensitivity is 50 ng/mL for the ADC and the IgG, and 170 ng/mL for anti-SN-38 antibody.

[4] = Serum pharmacokinetics (ELISA for IgG and intact conjugate, HPLC for SN-38); type: in vivo, human; conditions: patients
Experimental: Two ELISA methods were used to measure the clearance of the IgG (capture with anti-hRS7 idiotype antibody) and the intact conjugate (capture with anti-SN-38 IgG/probe with anti-hRS7 idiotype antibody). SN-38 was measured by HPLC.

[5] = tested on: patients with diverse metastatic cancers; conditions: human, in vivo
Excerpt: In the Phase I and the expansion phases, there are now 48 pts (excluding PDC) who are assessable by RECIST/CT for best response.

[6] = tested on: patients with metastatic TNBC; conditions: second line or later (Bardia et al., 2019); cited from earlier work
[7] = tested on: patients with non-small cell lung cancer (NSCLC); conditions: cited from earlier work
[8] = 10 mg/kg, N = 45, listed as Sacituzumab Govitecan

sacituzumab govitecan
ORR (objective response rate) ([1]; N = 45, 10 mg/kg): 31% and 31.1%
ORR (objective response rate) ([1]; N = 45, listed as Sacituzumab Govitecan, 10 mg/kg): 31.1%
ORR, prior CPI- and platinum-treated patients ([1]; 10 mg/kg, 4 of 15, 10 mg/kg): 27% and 26.7%
ORR, prior CPI-treated patients ([1]; 10 mg/kg, 4 of 17, 10 mg/kg): 24% and 23.5%
ORR, patients with liver metastases ([1]; 10 mg/kg, 5 of 15, 10 mg/kg): 33% and 33.3%
ORR, patients with any visceral involvement ([1]; 10 mg/kg, 9 of 33): 27.3%
Clinical benefit rate, No. of patients ([1]; 10 mg/kg, N = 45): 21
Median OS ([1]; 10 mg/kg, N = 45): 16.3 months
Median PFS ([1]; 10 mg/kg, N = 45): 7.3 months
ORR, No. of patients ([1]; 10 mg/kg, N = 45): 14
CR, % of patients ([1]; 10 mg/kg, N = 45, 10 mg/kg): (4.4) %
PD, % of patients ([1]; 10 mg/kg, N = 45, 10 mg/kg): (22.2) %
PR, % of patients ([1]; 10 mg/kg, N = 45, 10 mg/kg): (26.7) %
CR, % of patients [1, 8]: 4.4%
PD, % of patients [1, 8]: 22.2%
PR, % of patients [1, 8]: 26.7%
Median DOR (duration of response) ([1]; 10 mg/kg, responders n = 14): 12.9 months
Time to onset of response, median ([1]; 10 mg/kg, responders n = 14): 1.9 months
Time to onset of response, range ([1]; 10 mg/kg, responders n = 14): 1.7-7.4 months
Ongoing response of patients still on treatment at time of analysis ([1]; 3 patients, FIG. 1B): > 17 months and > 19 months and > 29 months
Responders with response duration of more than 12 months ([1]; 7 of 14 responders): 50%
Patients with a reduction of target lesions ([1]; 31 of 40 patients with post-baseline assessment): 77.5%
Response rate among patients who had failed previous checkpoint inhibitor therapy [2]: 44%
Complete responses (CR) ([2]; 10 mg/kg, N = 108): 2.8%
Median overall survival ([2]; 10 mg/kg, N = 108): 13.0 months
Median progression-free survival ([2]; 10 mg/kg, N = 108): 5.5 months
Estimated probability that a patient would exhibit a response at 6 months ([2]; 36 responders): 59.7%
Estimated probability that a patient would exhibit a response at 12 months ([2]; 36 responders): 27.0%
Median duration of response ([2]; 36 responders): 7.7 months
Median time to response ([2]; 36 responders): 2.0 months
Patients with long-term responses of more than 12 months ([2]; at data cutoff): 6
Response rate (CR+PR) ([2]; ≥2 prior lines, 10 mg/kg days 1 and 8 of 21 day cycle, N = 108): 33.3%
Anemia, % of patients [3]: 50%
Anemia, grade 3 [3]: 11%
Decreased white blood cell count, grade 4 [3]: 3%
Diarrhea, % of patients [3]: 62%
Diarrhea, grade 3 [3]: 8%
Fatigue, % of patients [3]: 55%
Fatigue, grade 3 [3]: 8%
Hyperglycemia, grade 4 [3]: 1%
Nausea, % of patients [3]: 67%
Nausea, grade 3 [3]: 6%
Neutropenia, % of patients [3]: 64%
Neutropenia, grade 3 [3]: 26%
Neutropenia, grade 4 [3]: 16%
Vomiting, % of patients [3]: 49%
Vomiting, grade 3 [3]: 6%
Immunogenicity: antibodies to sacituzumab govitecan, the hRS7 antibody, or SN-38 (patients with mSCLC): not immunogenic; also recorded: No neutralizing antibodies
Clearance of intact conjugate compared with the IgG ([4]; ELISA): cleared more quickly than the IgG
Time for the conjugate to clear from the serum ([4]; serum): ≤ 3 days
SN-38 in the serum bound to the IgG (non-glucuronidated form) ([4]; serum, HPLC (Unbound and TOTAL)): > 95%
Anti-hRS7 or anti-SN-38 antibodies [5]: No anti-hRS7 or anti-SN-38 antibodies were detected
Median progression-free survival (PFS) [6]: 5.5 months
Overall survival (OS) [6]: 13.0 months
Response rate [6]: 33.3%
ORR ([7]; 47 response assessable patients, median of three prior therapies): 19%
Clinical benefit rate ([7]; 47 response assessable patients): 43%
Median OS [7]: 9.5 months
Median PFS [7]: 5.2 months
